Key:
[1] = test system: several different tumor types; assay: In vivo tumor growth inhibition, overall statement; set-up: species or system nude athymic CD-1 mice; conditions: mouse xenografts, compared with cisplatin, oxaliplatin, carboplatin
Experimental: (§1) Tumor xenograft studies were performed using nude athymic CD-1 mice (Charles River Laboratories). Human cancer cells (5×10^6 PC3, 5×10^6 HT29, 10^7 Calu-6, and 5×10^6 ME180) were implanted in the hind flank of nude mice. Tumor growth was measured using calipers and tumor volume calculated using the formula: (width^2×(length/2)). Tumor volume was measured 3 days per week. Animal weight was measured 3 days per week to assess compound toxicity.
(§2) Compounds were tested for in vivo tumor growth inhibition as follows. Animals bearing tumors 100-200 mg were sorted into groups (5-8 animals) with similar average tumor mass per group. Drug doses were administered by intraperitoneal (IP) injection (0.5 mL). Test compounds were dissolved in phosphate buffered saline (PBS) and concentration adjusted for animal weight. Actual drug concentrations in formulated doses were verified by quantitative nitrogen detection. Animals were dosed every 7 days for 21 days in most studies. In several studies, animals were dosed twice weekly (days 0, 4, 7, 10, 14, etc.). Tumor volume and animal weight were measured on days 0, 2, 4, 7, 9, 11, 14, 16, 18, 21, 23, 25, and 28. […] Tumor volume at the end of the study was calculated as a percentage of the tumor volume on day 0. […]

PC3 (Prostate) xenograft = assay: In vivo tumor growth inhibition, mouse xenograft, PC3; set-up: species or system nude athymic CD-1 mice; conditions: 80 mg/kg (2/week), IP
Experimental: as §1, §2

HT29 (Colon) xenograft = assay: In vivo tumor growth inhibition, mouse xenograft, HT29; set-up: species or system nude athymic CD-1 mice; conditions: IP
Experimental: as §1
(§3) Compounds were tested for in vivo tumor growth inhibition as follows. Animals bearing tumors 100-200 mg were sorted into groups (5-8 animals) with similar average tumor mass per group. Drug doses were administered by intraperitoneal (IP) injection (0.5 mL). Test compounds were dissolved in phosphate buffered saline (PBS) and concentration adjusted for animal weight. Actual drug concentrations in formulated doses were verified by quantitative nitrogen detection. Animals were dosed every 7 days for 21 days in most studies. In several studies, animals were dosed twice weekly (days 0, 4, 7, 10, 14, etc.). Tumor volume and animal weight were measured on days 0, 2, 4, 7, 9, 11, 14, 16, 18, 21, 23, 25, and 28. At the end of the study, animal blood was removed for analysis of liver and kidney function (BUN, creatine, AST and ALT; analytical measurements performed by Quality Clinical Labs). Tumor volume at the end of the study was calculated as a percentage of the tumor volume on day 0. The percent tumor growth inhibition was obtained from the ratio of the percentage tumor volume increase in drug treated animals to the percentage tumor volume increase in saline treated animals.

HT29 cells [2] = assay: Effect of sugar transport inhibitor (phloridzen) on in vitro cytotoxicity; assay type: cell-based, human; conditions: for GI50: 48 hours
Experimental: (§4) The effect of experimental compounds on cancer cell growth and viability was measured in a panel of human cancer cells grown in vitro. All cancer cell lines were obtained from the American […]. Cells were maintained in the following media: TUR, H69AR, Calu-6, ME180, and PC3 cells were grown in RPMI medium containing 4.5 g/L glucose, 10% FBS, 4 mM L-glutamine, and 1 mM sodium pyruvate); and HT29 cells were grown in DMEM with 4.5 g/L glucose, 10% FBS, and 6 mM L-glutamine. All cells were grown at 37° C. in 5% CO2 and passaged bi-weekly.
(§5) For cytoxicity studies, cells were seeded into 96-well clear-bottom microtiter plates at the following densities: TUR (7,500 cells/well), HT29 (5,000 cells/well), H69AR (10,000 cells/well), Calu-6 (15,000 cells/well), and ME180 (2,500 cells/well). Cells were maintained at 37° C. with 5% CO2 for 24 hours prior to addition of various experimental compounds. Each condition was measured in triplicate. For compounds dissolved in DMSO, the final DMSO concentration in each well and in the non-drug treated control cells was constant and below 1% in all studies. The number of viable cells was determined after 24, 48, and 72 hours using Alamar blue fluorescence. Briefly, Alamar blue (10 mM) was added to each well for 4 hours, and the number of viable cells estimated by measuring the fluorescence of reduced Alamar blue (530 nm excitation, 590 nm emission). To correct for background fluorescence, cells were treated with 100% DMSO to eliminate all viable cells. The effect of drug on cell growth was determined by calculating the fraction of live cells treated with drug compared to untreated cells: (F1drug treated−F1DMSO killed)/(F1untreated−F1DMSO killed).

[3] = Determination of maximum tolerated dose (MTD); assay type: in vivo, nude mice; conditions: for Therapeutic Index MTD/Min Eff: ratio of maximum tolerated dose to minimally effective dose
Experimental: To determine the maximum tolerated doses for compound (54) relative to clinically used platinum anticancer agents, nude mice were injected with increasing drug doses (0.5 mL, intraperitoneally) on days 0, 7, and 14. […] The therapeutic index of a given drug is defined as the ratio of the maximum tolerated dose to the minimally effective dose.

TUR cells = assay: In vitro cytotoxicity (Alamar blue growth inhibition), TUR; assay type: cell-based, human; conditions: 48 h
Experimental: as §4, §5

ME180 cells = assay: In vitro cytotoxicity (Alamar blue growth inhibition), ME180; assay type: cell-based, human; conditions: ME180, 48 h
Experimental: as §4, §5

[4] = test system: ME180 (Cervical) xenograft; assay: In vivo tumor growth inhibition, mouse xenograft, ME180; set-up: species or system nude athymic CD-1 mice; conditions: IP
Experimental: as §1, §3

Calu-6 (Lung) xenograft = assay: In vivo tumor growth inhibition, mouse xenograft, Calu-6; set-up: species or system nude athymic CD-1 mice; conditions: IP
Experimental: as §1, §3

PC3 cells = assay: In vitro cytotoxicity (Alamar blue growth inhibition), PC3; assay type: cell-based, human; conditions: PC3, 48 h
Experimental: as §4, §5

HT29 cells [5] = assay: In vitro cytotoxicity (Alamar blue growth inhibition), HT29; assay type: cell-based, human; conditions: HT29, 48 h
Experimental: as §4, §5

Calu-6 cells = assay: In vitro cytotoxicity (Alamar blue growth inhibition), Calu-6; assay type: cell-based, human; conditions: Calu-6, 48 h
Experimental: as §4, §5

H69AR cells = assay: In vitro cytotoxicity (Alamar blue growth inhibition), H69AR; assay type: cell-based, human; conditions: 48 h
Experimental: as §4, §5

[6] = HT29, 0 mM phloridzen, read-out: GI50 of Uptake in HT29 Cells, 0 mM Phoridzen
[7] = HT29, 0.2 mM phloridzen, read-out: GI50 of Uptake in HT29 Cells, 0.2 mM Phoridzen
[8] = HT29, 0.5 mM phloridzen, read-out: GI50 of Uptake in HT29 Cells, 0.5 mM Phoridzen
[9] = HT29, 1.0 mM phloridzen, read-out: GI50 of Uptake in HT29 Cells, 1.0 mM Phoridzen

O=C(CCCC1C(=O)[O][Pt]2([NH]C3CCCCC3[NH]2)[O]C1=O)NCC1OC(O)C(O)C(O)C1O [(54), [1R,2R-Cyclohexanediamine-N,N′][{3-(α,β-D-Galactopyranos-6-ylamido)propyl}propanedioato(2-)-O,O′]Platinum (II)]
Inhibition of tumor growth in vivo, in words [1]: effective in inhibiting growth of several different tumor types in vivo | Percent Tumor Growth Inhibition PC3 (Prostate) (PC3 (Prostate) xenograft): 82% | Percent Tumor Growth Inhibition HT29 (Colon) (HT29 (Colon) xenograft; 75 mg/kg (2/week)): 74% | Percent Tumor Growth Inhibition HT29 (Colon) (HT29 (Colon) xenograft; 100 mg/kg): 63% | GI50 (HT29 cells [2]; [6]): 385 µM | GI50 (HT29 cells [2]; [7]): 574 µM | GI50 (HT29 cells [2]; [8]): 759 µM | GI50 (HT29 cells [2]; [9]): > 1000 µM | Effect of increasing concentrations of phloridzen on cytotoxic effects (HT29 cells [2]; HT29, 48 hours, in words): block the cytotoxic effects | Therapeutic index relative to cisplatin, carboplatin, oxaliplatin, in words ([3]; in words): dramatically improved therapeutic index | Therapeutic Index MTD/Min Eff [3]: 12.7 | GI50 (TUR cells): 9 µM | GI50 (ME180 cells): 15 µM | Percent Tumor Growth Inhibition ME180 (Cervical) ([4]; 50 mg/kg (2/week)): 24% | Percent Tumor Growth Inhibition ME180 (Cervical) ([4]; 75 mg/kg (2/week)): 24% | Percent Tumor Growth Inhibition ME180 (Cervical) ([4]; 100 mg/kg): 18% | Percent Tumor Growth Inhibition ME180 (Cervical) ([4]; 500 mg/kg): 68% | Percent Tumor Growth Inhibition Calu-6 (Lung) (Calu-6 (Lung) xenograft; 50 mg/kg (2/week)): 73% | Percent Tumor Growth Inhibition Calu-6 (Lung) (Calu-6 (Lung) xenograft; 100 mg/kg): 42% | Percent Tumor Growth Inhibition Calu-6 (Lung) (Calu-6 (Lung) xenograft; 500 mg/kg): 81% | GI50 (PC3 cells): 85 µM | GI50 (HT29 cells [5]): 238 µM | GI50 (Calu-6 cells): 185 µM | GI50 (H69AR cells): 77 µM

O=C(CCCC1C(=O)[O][Pt]2([NH]C3CCCCC3[NH]2)[O]C1=O)NC1C(O)OC(CO)C(O)C1O [(79), [1R,2R-Cyclohexanediamine-N,N′][{3-(α,β-D-Glucopyranos-2-yl-amido)propyl}propanedioato(2-)-O,O′]Platinum (II)]
Percent Tumor Growth Inhibition PC3 (Prostate) (PC3 (Prostate) xenograft): 48% | GI50 (TUR cells): 15 µM | GI50 (PC3 cells): 67 µM | GI50 (HT29 cells [5]): 124 µM | GI50 (H69AR cells): 55 µM

N.N.O=C(CCCC1C(=O)[O][Pt][O]C1=O)NC1C(O)OC(CO)C(O)C1O [(82), [Diammine][{3-(α,β-D-Glucopyranos-2-yl-amido)propyl}propanedioato(2-)-O,O′]Platinum (II)]
GI50 (TUR cells): 142 µM | GI50 (ME180 cells): 11 µM | GI50 (PC3 cells): 133 µM | GI50 (HT29 cells [5]): 800 µM | GI50 (Calu-6 cells): 300 µM | GI50 (H69AR cells): 112 µM

O=C1[O][Pt]2([NH]C3CCCCC3[NH]2)[O]C(=O)C1CCCC1OC(CO)C(O)C(O)C1O [(83), [1R, 2R-Cyclohexanediamine-N,N′][{3-(α,β-D-Mannopyranos-1-yl)propyl}propanedioato(2-)-O,O′]Platinum (II)]
GI50 (TUR cells): 41 µM | GI50 (ME180 cells): 10 µM | GI50 (PC3 cells): 100 µM | GI50 (HT29 cells [5]): 117 µM | GI50 (Calu-6 cells): 155 µM | GI50 (H69AR cells): 163 µM

NC1CCCCC1N.O=C1[O][Pt][O]C(=O)C1CCC1OC(CO)C(O)C(O)C1O [(88), [1R,2R-Cyclohexanediamine-N,N′][{2-(α,β-D-Glucopyranos-1-yl)ethyl}propanedioato(2-)-O,O′]Platinum (II)]
GI50 (TUR cells): 31 µM | GI50 (ME180 cells): 13 µM | GI50 (PC3 cells): 112 µM | GI50 (HT29 cells [5]): 226 µM | GI50 (Calu-6 cells): 260 µM | GI50 (H69AR cells): 98 µM

O=C1[O][Pt]2([NH]C3CCCCC3[NH]2)[O]C(=O)C1CCC1OC(CO)C(O)C(O)C1O (stereo not shown) [(93)]
GI50 (TUR cells): 20 µM | GI50 (ME180 cells): 7 µM | GI50 (PC3 cells): 69 µM | GI50 (HT29 cells [5]): 178 µM | GI50 (Calu-6 cells): 139 µM | GI50 (H69AR cells): 78 µM

N.N.O=C([O-])C1(C(=O)[O-])CCC1.[Pt+2] [Carboplatin, reference compound]
Percent Tumor Growth Inhibition HT29 (Colon) (HT29 (Colon) xenograft; 100 mg/kg): 47% | Therapeutic Index MTD/Min Eff [3]: 2.3 | GI50 (TUR cells): 123 µM | GI50 (ME180 cells): 64 µM | Percent Tumor Growth Inhibition ME180 (Cervical) ([4]; 100 mg/kg): 25% | Percent Tumor Growth Inhibition Calu-6 (Lung) (Calu-6 (Lung) xenograft; 100 mg/kg): 56% | GI50 (PC3 cells): 290 µM | GI50 (HT29 cells [5]): 515 µM | GI50 (Calu-6 cells): 712 µM | GI50 (H69AR cells): 94 µM

N.N.[Cl][Pt][Cl] [Cisplatin, reference compound]
Percent Tumor Growth Inhibition HT29 (Colon) (HT29 (Colon) xenograft; 2 mg/kg): 69% | GI50 (HT29 cells [2]; [6]): 261 µM | GI50 (HT29 cells [2]; [7]): 194 µM | GI50 (HT29 cells [2]; [8]): 192 µM | GI50 (HT29 cells [2]; [9]): 254 µM | GI50 (TUR cells): 10 µM | GI50 (ME180 cells): 1 µM | GI50 (PC3 cells): 31 µM | GI50 (HT29 cells [5]): 30 µM | GI50 (Calu-6 cells): 149 µM | GI50 (H69AR cells): 4 µM

O=C1[O][Pt]2([NH][C@@H]3CCCC[C@H]3[NH]2)[O]C1=O [Oxaliplatin, oxaliplatin, reference compound]
Percent Tumor Growth Inhibition HT29 (Colon) (HT29 (Colon) xenograft; 5 mg/kg): 40% | Therapeutic Index MTD/Min Eff [3]: 2.0 | GI50 (TUR cells): 42 µM | GI50 (ME180 cells): 28 µM | GI50 (PC3 cells): 113 µM | GI50 (HT29 cells [5]): 133 µM | GI50 (Calu-6 cells): 52 µM | GI50 (H69AR cells): 60 µM

From US20060205677A1 (XenoPort, Inc., priority 2005, published 2006)
